Calls of active or inactive are those of the source. No cut-off for these calls is given here. Bounds are passed on as bounds.

In data set [1] the test system is B16-F10. Kind of data set: Induction of ROS generation in mouse B16-F10 cells assessed as reduction in SOD2 expression level at 1.25 uM preincubated with rosiglitazone for 24 hrs followed by compound addition for 24 hrs. The data set is classed as functional, cell-based.
In data set [2] the test system is B16-F10. Kind of data set: Antiproliferative activity against mouse B16-F10 cells assessed as inhibition of cell growth after 24 to 72 hrs by MTT assay. The data set is classed as functional, cell-based. (Tetrazolium dyes change colour on reduction, which living cells bring about.)
The test system of data set [3] is B16-F10. Kind of data set: Antitumor activity against mouse B16-F10 cells inoculated in mouse assessed as reduction in lung melanoma nodules at 2 mg/kg, ip administered every other day and measured on day 18 by immunohistochemistry analysis. Particulars: time 18.0 day. The data set is classed as functional, organism-based.
Data set [4] has as its system B16-F10. As to the kind of experiment: Induction of cell cycle arrest in mouse B16-F10 cells assessed as accumulation of cells at G0/G1 phase incubated for 24 hrs by PI staining based flow cytometry analysis (reference value: 10.93%). The data set is classed as functional. For orientation: Flow cytometry measures light scatter and fluorescence of single cells or particles in a stream.

Data set [5] is described as follows: Drug uptake in human A-375 cells assessed as fluorescence intensity at 2.5 uM incubated for 1 hr by confocal laser scanning microscopic analysis. The data set is classed as ADME, cell-based. To be noted: a-375, 1 h.
The nature of data set [6]: Drug uptake in mouse B16-F10 cells mitochondria at 2.5 uM incubated for 25 mins by mito-tracker green dye based confocal laser scanning fluorescence microscopy analysis. The data set is classed as ADME. Particulars: b16-f10, 25 min.
Data set [7] concerns A-375. As to the kind of experiment: Induction of ROS generation in human A-375 cells assessed as reduction in SOD2 expression level at 1.25 uM preincubated with rosiglitazone for 24 hrs followed by compound addition for 24 hrs. It counts as functional, cell-based.
Data set [8] concerns B16-F10. Kind of data set: Induction of cell cycle arrest in mouse B16-F10 cells assessed as reduction in cyclin E1 protein level at 0.31 to 1.25 uM after 24 hrs by Western blotting analysis. It counts as functional, cell-based. Particulars: dose 0.31-1.25 µM. Background: A western blot detects proteins with antibodies after separation by electrophoresis.
Data set [9] has as its system B16-F10. As to the kind of experiment: Antitumor activity against mouse B16-F10 cells inoculated in C57BL/6J mouse assessed as reduction in Ki-67 expression at 0.5 to 2 mg/kg, ip administered every other day and measured on day 22 by immunohistochemistry analysis. The data set is classed as functional, organism-based. To be noted: dose 0.5-2 mg/kg, time 22.0 day.
Data set [10] can be described thus: Toxicity in C57BL/6J mouse inoculated with mouse B16-F10 cells assessed as reduction in body weight at 2 mg/kg, ip administered every other day and measured after 16 days. The data set is classed as organism-based. To be noted: in vivo, 384 h, time 16 day.
For data set [11], the system named is B16-F10. Kind of data set: Antitumor activity against mouse B16-F10 cells inoculated in C57BL/6J mouse assessed as reduction in PPARgamma expression at 0.5 to 2 mg/kg, ip administered every other day and measured on day 22 by immunohistochemistry analysis. The data set is classed as functional, organism-based. To be noted: dose 0.5-2 mg/kg, time 22.0 day.
The nature of data set [12]: Renal toxicity in C57BL/6J mouse inoculated with mouse B16-F10 cells assessed as change in BUN level at 2 mg/kg, ip administered every other day for 22 days. It counts as organism-based. Particulars: in vivo, 528 h, time 22 day.
In data set [13] the test system is B16-F10. As to the kind of experiment: Antitumor activity against mouse Dil-stained B16-F10 cells inoculated in zebrafish assessed as reduction in tumor growth by measuring tumor fluorescence intensity at 0.31 to 1.25 uM by confocal microscopy analysis. Particulars: dose 0.31-1.25 µM. The data set is classed as functional, cell-based.
Data set [14] is described as follows: Drug uptake in human MDA-MB-231 cells assessed as fluorescence intensity at 2.5 uM incubated for 1 hr by confocal laser scanning microscopic analysis. Particulars: mda-mb-231, 1 h. It counts as ADME, cell-based.
Data set [15] deals with A-375. As to the kind of experiment: Induction of cell cycle arrest in human A-375 cells assessed as reduction in Cdk2 protein level at 0.31 to 1.25 uM after 24 hrs by Western blotting analysis. The data set is classed as functional, cell-based. To be noted: dose 0.31-1.25 µM.
The subject of data set [16] is B16-F10. Kind of data set: Inhibition of Wnt/beta-catenin signaling in mouse B16-F10 cells assessed as reduction in beta-catenin expression at 1.25 uM preincubated with rosiglitazone for 24 hrs followed by compound addition and measured after 24 hrs in presence of H2O2. The data set is classed as cell-based.
Data set [17] deals with B16-F10. As to the kind of experiment: Induction of cell cycle arrest in mouse B16-F10 cells assessed as P21 protein accumulation at 0.31 to 1.25 uM after 24 hrs by Western blotting analysis. It counts as functional, cell-based. Particulars: dose 0.31-1.25 µM.
A short description of data set [18]: Cytotoxicity against mouse B16-F10 cells assessed as cell viability at 40 uM incubated for 24 hrs by MTT assay. It counts as toxicity, cell-based. To be noted: read-out: Activity.
The test system of data set [19] is A-375. Kind of data set: Induction of cell cycle arrest in human A-375 cells assessed as reduction in cyclin E1 protein level at 0.31 to 1.25 uM after 24 hrs by Western blotting analysis. It counts as functional, cell-based. Particulars: dose 0.31-1.25 µM.
Data set [20] deals with A-375. Kind of data set: Inhibition of tumor metastasis in human A-375 cells assessed as reduction in wound healing after 24 hrs. It counts as functional, cell-based. Particulars: dose 0.08-1.25 µM.
Data set [21] deals with A-375. Kind of data set: Inhibition of cell migration in human A-375 cells after 24 hrs by transwell assay. The data set is classed as functional, cell-based. Particulars: dose 0.31-1.25 µM.
The subject of data set [22] is A-375. Kind of data set: Inhibition of ROS generation in human A-375 cells at 1.25 uM preincubated with rosiglitazone for 2 hrs followed by wash out and compound addition for 1 hr by DCFH-DA staining based inverted fluorescence microscopic analysis. The data set is classed as functional. Also noted: scale not given: the % may be the effect or the level left.
Data set [23] concerns A-375. As to the kind of experiment: Induction of cell cycle arrest in human A-375 cells assessed as P21 protein accumulation at 0.31 to 1.25 uM after 24 hrs by Western blotting analysis. Particulars: dose 0.31-1.25 µM. It counts as functional, cell-based.

For `CC[N+]1=C(/C=C/C2=C(Cl)C(=C/C=C3\N(CCCCCC(=O)O/C(=N/C4CCCCC4)NC4CCCCC4)c4ccccc4C3(C)C)/CCC2)C(C)(C)c2ccccc21.[Br-]`, the outcome in [1] and in data set [7] was inactive. In addition, in data set [2], the IC50 turned out to be 410 nM. For the same compound, the Activity result is “Dose-Dependent Effect” in [2] (time 24-72 hrs); 40.75% in data set [4]; “Non-Toxic” in data set [10]; “Non-Toxic” in data set [12]; above 50% in data set [22]. Besides, the outcome in [3], in data set [8], in [9], in data set [11], in data set [13] and in [15] was Active. Also, the outcome in data set [17], in [19] and in [23] was Active. The Drug uptake result in data set [5], in data set [6] and in [14] was “Active” each time. In addition, the inhibition result in data set [16] is “inactive”. Besides, the viability at 24 h, 40 µM in data set [18] was 90%. For the same compound, the inhibition result in data set [20] and in [21] was “Dose-Dependent Effect” each time.

In general, IC50 refers to the concentration that inhibits the measured activity by half.

These data come from ChEMBL document CHEMBL5620390, “A novel multifunctional mitochondrion-targeting NIR fluorophore probe inhibits tumour proliferation and metastasis through the PPARγ/ROS/β-catenin pathway” (Eur J Med Chem, 2023).
